From patent US6420558B1, “Aminopiperidine derivates as integrin αvβ3 antagonists” (Meiji Seika Kaisha, Ltd., priority 1998, dated 2002) come the findings set out here.

One data set is described as follows: Oral absorption in rats. Particulars: data not shown. The class given is in vivo. From the text: Therefore, any of the compounds, wherein R^12 represents an alkyl group or a hydrogen atom, can be used in the treatment of the above diseases.
The target of data set [1] is T1, integrin αvβ3 (vitronectin receptor purified from the human placenta) (Homo sapiens, UniProt P05106+P06756).
T1 construct: a vitronectin receptor (protein content: 118 μg/ml) purified from the human placenta; from tissue; host or cells: human placenta
Put plainly: αvβ3 binding assay (vitronectin-vitronectin receptor binding assay). Particulars: vitronectin binding to human placenta vitronectin receptor; read-out: integrin αvβ3 antagonistic activity, IC50 value. As to the method: Integrin αvβ3 antagonistic activity was measured for the compounds according to the present invention in a vitronectin-vitronectin receptor binding assay system in accordance with the method of Kouns et al. (W. C. Kouns, D. Kirchhofer, P. Hadvary, A. Edenhofer, T. Weller, G. Pfenninger, H. R. Baumgartner, L. K. Jennings and B. Steiner, Blood, 80, 2539-2547 (1992)).
Specifically, a vitronectin receptor (protein content: 118 μg/ml) purified from the human placenta in accordance with the method of Pytela et al. (R. Pytela, M. D. Pierschbacher, S. Argraves, S. Suzuki, and E. Ruoslahti, Method in Enzymology, 144, 475-489 (1987)) was diluted 50 times with TBS (20 mM Tris-HCl, 150 mM NaCl, 1 mM CaCl2, 1 mM MgCl2, pH 7.4), and distributed and coated on wells (50 μl/well) of a plate (Maxisorp, Nunc, 96 well Immuno Plate). The plate was then allowed to stand at 4° C. for 1 day, washed twice with TBS (200 μl/well), and then subjected to blocking with TBS (150 μl/well) containing 1% bovine serum albumin (SIGMA) at 4° C. overnight. After washing twice with TBS (200 μl/well), 50 μl of vitronectin (CALBIOCHEM) adjusted to 0.2 μg/ml by the addition of TBS (TBS-Tween) containing 0.01% Tween-20 was mixed with 50 μl of each test compound adjusted to each concentration in wells, and a reaction was allowed to proceed at room temperature for 4 hr. After the completion of the reaction, the wells were washed five times with TBS-Tween. A solution prepared by diluting anti-vitronectin rabbit antiserum (CHEMICON) 500 times with TBS-Tween was added as a primary antibody in an amount of 50 μl/well, and a reaction was allowed to proceed at room temperature for 1.5 hr. After washing five times with 200 μl/well of TBS-Tween, a peroxidase (POD)-labeled anti-rabbit IgG antibody solution (CAPPEL) diluted 500 times with TBS-Tween was added as a secondary antibody in an amount of 50 μl/well, and a reaction was allowed to proceed at room temperature for 1.5 hr. After washing five times with TBS-Tween (200 μl/well), ABTS (2,2′-azino-bis(3-ethylbenzthiazoline-6-sulfonic acid), SIGMA) was adjusted to 1 mg/ml by the addition of a ten-fold diluted POD-buffer (ZYMED), and added in an amount of 50 μl/well, and a reaction was allowed to proceed for 5 to 10 min. A 0.1 M citric acid buffer (pH 4.3) containing 0.05% NaN3 was added in an amount of 50 μl/well to stop the reaction, followed by the measurement of the absorbance at 415 nm with a microplate reader (MTP 32, Corona Electric) (reference: 675 nm). The total binding was defined as the absorbance after a reaction using 50 μl of TBS-Tween instead of the test compound, and the non-specific binding (100% inhibition) was defined as the absorbance after a reaction using 50 μl of TBS-Tween containing 2×10^−3 M RGDS. The inhibition was calculated by the following equation: [formula]
IC50 was determined from a primary regression line of the logarithm of each concentration of the test compound and the logarithm of (100−inhibition)/inhibition.

The test system of data set [2] is human platelet aggregation. In words: Human platelet aggregation inhibitory activity (method of Pharmacological Test 1 in WO 94/21599). In kind it is cell-based. Particulars: human platelets, read-out: inhibition of human platelet aggregation, IC5. value. The procedure:
(§1) GP IIb/IIIa Antagonistic Activity and Human Platelet Aggregation Inhibitory Activity
Human platelet aggregation inhibitory activity was measured for the compounds according to the present invention. The measurement of the human platelet aggregation activity was carried out according to the method described in Pharmacological Test 1 in WO 94/21599.

A further data set deals with GP IIb/IIIa (Homo sapiens, UniProt P05106+P08514). Put plainly: GP IIb/IIIa antagonistic activity (method of Pharmacological Test 2 in WO 94/21599). In kind it is binding. As to the method:
as §1
GP IIb/IIIa antagonistic activity was measured for the compounds according to the present invention. The measurement of the GP IIb/IIIa antagonistic activity was carried out according to the method described in Pharmacological Test 2 in WO 94/21599.

The subject of data set [3] is human vascular smooth muscle cells adhering to immobilized human vitronectin. Put plainly: Inhibitory activity against adhesion of human vascular smooth muscle cells to vitronectin. The class given is cell-based. Particulars: 1.5 h; human vitronectin-coated plate, 90 min. As to the method: Inhibitory Activity Against Adhesion of Human Vascular Smooth Muscle Cells to Vitronectin
The adhesion of human vascular smooth muscle cells =+to immobilized human vitronectin was measured in accordance with the method of Liaw et al. (Liaw L, Almeida M, Hart C E, Schwartz S M, and Giachelli C M, Circulation Research, 74 (2), 214-224 (1994)).
A Dulbecco's phosphate buffer (Dulbecco's PBS(−), Nissui Pharmaceutical Co., Ltd.) solution of human plasma-derived vitronectin (CALBIOCHEM) adjusted to a concentration of 4 μg/ml was first added to wells (50 μl/well) of a microplate (Maxisorp, Nunc), and a reaction for immobilization was allowed to proceed at 4° C. overnight. After washing twice with 150 μl of Dulbecco's phosphate buffer, a Dulbecco's phosphate buffer containing 10 mg/ml of bovine serum albumin (SIGMA) was added, followed by blocking at 37° C. for one hr. The assay plate was washed twice with 150 μl of Dulbecco's phosphate buffer.
Separately, human vascular smooth muscle cells cultivated at 37° C. under 5% carbon dioxide in a medium for vascular smooth muscle cells (Clonetics) were separated using a Dulbecco's phosphate buffer containing trypsin-EDTA (GIBCO BRL), washed with Dulbecco's phosphate buffer, and then suspended in a Dulbecco's modified Eagle's basal medium (Nissui Pharmaceutical Co., Ltd.) containing 0.1% bovine serum albumin to a concentration of 5×10^5/ml.
Next, 50 μl of a Dulbecco's modified Eagle's basal medium containing 10 mg/ml of bovine serum albumin with a medicament added thereto was added to the wells of the human vitronectin-coated assay microplate, followed by pre-cultivation under 5% carbon dioxide at 37° C. for 10 min. Thereafter, 50 μl of the medium with human vascular smooth muscle cells suspended therein was added thereto, and the plate was thoroughly stirred. A reaction was allowed to proceed under 5% carbon dioxide at 37° C. for 90 min. The reaction solution containing non-adherent cells were then removed, followed by washing three times with Dulbecco's phosphate buffer. For the adhered cells, 100 μl of a Dulbecco's phosphate buffer containing 4% paraformaldehyde (Wako Pure Chemical Industries, Ltd.) was added, and immobilization was allowed to proceed at room temperature for 10 min. Next, 100 μl of a Dulbecco's phosphate buffer containing 0.5% Toluidine Blue (Croma) and 4% paraformaldehyde was added, and staining was allowed to proceed at room temperature for 5 min, followed by thorough washing with distilled water. The inside of the wells was then air-dried, and a 1% aqueous sodium dodecylsulfate solution was then added to perform cytolysis. The absorbance of the microplate thus obtained was measured at 595 nm. […] The inhibition was calculated by the following equation. IC50 was determined from a primary regression line of the logarithm of each concentration of the test compound and the logarithm of (100−inhibition)/inhibition. [formula]

Where only a bound is given, the exact number is not on record here.

Sequence of GP IIb/IIIa (P08514 32-887 limits assumed): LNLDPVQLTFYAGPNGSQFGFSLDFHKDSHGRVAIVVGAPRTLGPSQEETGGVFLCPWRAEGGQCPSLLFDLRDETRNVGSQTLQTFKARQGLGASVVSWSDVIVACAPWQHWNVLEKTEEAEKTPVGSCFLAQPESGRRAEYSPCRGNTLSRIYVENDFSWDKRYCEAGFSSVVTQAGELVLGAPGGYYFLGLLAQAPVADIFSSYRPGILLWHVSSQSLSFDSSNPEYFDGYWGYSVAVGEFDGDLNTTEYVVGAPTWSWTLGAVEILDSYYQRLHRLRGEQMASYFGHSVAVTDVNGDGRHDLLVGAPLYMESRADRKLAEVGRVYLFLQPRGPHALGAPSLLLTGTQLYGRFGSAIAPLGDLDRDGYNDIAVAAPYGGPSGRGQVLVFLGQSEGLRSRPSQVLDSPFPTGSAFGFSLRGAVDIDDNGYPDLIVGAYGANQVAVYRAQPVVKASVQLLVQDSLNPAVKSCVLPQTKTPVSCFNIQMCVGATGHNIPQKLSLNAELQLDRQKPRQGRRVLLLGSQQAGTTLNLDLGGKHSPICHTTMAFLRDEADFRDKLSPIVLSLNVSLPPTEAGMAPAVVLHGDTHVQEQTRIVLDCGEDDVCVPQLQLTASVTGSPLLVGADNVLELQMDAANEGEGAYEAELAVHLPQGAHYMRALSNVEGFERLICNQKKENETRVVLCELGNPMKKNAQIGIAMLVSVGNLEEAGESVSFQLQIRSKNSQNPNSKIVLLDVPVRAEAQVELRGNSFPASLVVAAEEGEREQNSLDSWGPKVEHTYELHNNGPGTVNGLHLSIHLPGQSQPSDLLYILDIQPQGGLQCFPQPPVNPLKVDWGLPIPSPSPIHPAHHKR
Sequence of GP IIb/IIIa (P08514 891-1039 limits assumed): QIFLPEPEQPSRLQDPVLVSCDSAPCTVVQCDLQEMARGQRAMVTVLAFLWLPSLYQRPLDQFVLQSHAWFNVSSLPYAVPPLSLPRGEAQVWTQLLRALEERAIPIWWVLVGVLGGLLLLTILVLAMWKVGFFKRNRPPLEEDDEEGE
Sequence of GP IIb/IIIa (P05106 27-788): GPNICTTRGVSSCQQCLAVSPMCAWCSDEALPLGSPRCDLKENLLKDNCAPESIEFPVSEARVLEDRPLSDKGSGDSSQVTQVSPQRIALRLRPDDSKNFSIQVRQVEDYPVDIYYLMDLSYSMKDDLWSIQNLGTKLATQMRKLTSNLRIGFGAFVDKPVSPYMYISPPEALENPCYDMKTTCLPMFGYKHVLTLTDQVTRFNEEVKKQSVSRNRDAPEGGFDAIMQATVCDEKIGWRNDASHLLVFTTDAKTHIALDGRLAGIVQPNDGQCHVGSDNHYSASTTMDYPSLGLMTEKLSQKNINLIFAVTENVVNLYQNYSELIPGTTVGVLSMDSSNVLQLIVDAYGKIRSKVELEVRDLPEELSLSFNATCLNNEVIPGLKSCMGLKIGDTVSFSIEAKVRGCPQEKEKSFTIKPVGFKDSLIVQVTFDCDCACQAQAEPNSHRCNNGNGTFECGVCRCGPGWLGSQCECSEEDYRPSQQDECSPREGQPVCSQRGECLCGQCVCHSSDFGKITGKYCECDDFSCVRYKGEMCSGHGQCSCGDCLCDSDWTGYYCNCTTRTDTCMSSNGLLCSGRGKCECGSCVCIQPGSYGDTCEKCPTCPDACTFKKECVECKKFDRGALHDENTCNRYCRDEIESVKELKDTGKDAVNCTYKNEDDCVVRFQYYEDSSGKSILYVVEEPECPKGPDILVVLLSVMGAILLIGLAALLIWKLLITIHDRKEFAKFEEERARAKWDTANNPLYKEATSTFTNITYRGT
T1 sequence (P06756 31-889 limits assumed): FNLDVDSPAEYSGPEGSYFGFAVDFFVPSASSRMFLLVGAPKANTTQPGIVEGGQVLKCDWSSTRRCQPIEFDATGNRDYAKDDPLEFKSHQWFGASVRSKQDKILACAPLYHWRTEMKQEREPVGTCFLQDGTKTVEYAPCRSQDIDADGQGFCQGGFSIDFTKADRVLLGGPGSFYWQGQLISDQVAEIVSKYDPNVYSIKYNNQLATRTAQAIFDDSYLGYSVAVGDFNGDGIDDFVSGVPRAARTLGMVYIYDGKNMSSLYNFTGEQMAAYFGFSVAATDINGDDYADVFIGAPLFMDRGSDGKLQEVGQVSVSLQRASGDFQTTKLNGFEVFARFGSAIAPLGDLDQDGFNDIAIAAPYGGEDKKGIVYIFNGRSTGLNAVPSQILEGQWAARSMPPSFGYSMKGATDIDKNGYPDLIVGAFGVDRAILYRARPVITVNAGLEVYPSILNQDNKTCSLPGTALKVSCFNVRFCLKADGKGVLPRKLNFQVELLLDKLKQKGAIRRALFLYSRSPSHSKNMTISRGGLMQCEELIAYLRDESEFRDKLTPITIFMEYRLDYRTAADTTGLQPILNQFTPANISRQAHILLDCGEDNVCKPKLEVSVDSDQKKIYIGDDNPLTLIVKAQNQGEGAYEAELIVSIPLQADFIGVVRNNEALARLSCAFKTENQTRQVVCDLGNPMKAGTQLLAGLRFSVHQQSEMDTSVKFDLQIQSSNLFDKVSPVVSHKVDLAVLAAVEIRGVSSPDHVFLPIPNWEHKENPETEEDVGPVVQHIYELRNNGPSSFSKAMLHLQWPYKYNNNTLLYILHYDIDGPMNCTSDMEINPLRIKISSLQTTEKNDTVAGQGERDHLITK
T1 sequence (P06756 891-1048 limits assumed): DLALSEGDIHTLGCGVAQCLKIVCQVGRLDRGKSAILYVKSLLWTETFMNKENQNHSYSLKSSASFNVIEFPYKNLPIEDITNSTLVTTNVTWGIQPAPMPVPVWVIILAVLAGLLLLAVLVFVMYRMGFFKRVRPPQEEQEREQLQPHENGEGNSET
T1 sequence (P05106 27-788): as the sequence (P05106 27-788) above

With `O=C(NC[C@H](NS(=O)(=O)c1ccccc1)C(=O)O)c1ccc(N2CCC(Nc3ncccn3)CC2)c(Cl)c1` [Example 59, (2S)-Benzenesulfonylamino-3-[3-chloro-4-{4-(pyrimidin-2-ylamino)piperidin-1-yl}benzoylamino]-propionic acid], in the data set “Oral absorption in rats”, the oral absorption entry is “had oral absorption”.

In the case of `O=C(NC[C@H](NS(=O)(=O)c1ccccc1)C(=O)O)c1ccc(N2CCC(NC3=NCCCN3)CC2)c(Cl)c1` [Example 60, (2S)-Benzenesulfonylamino-3-[3-chloro-4-{4-(1,4,5,6-tetrahydropyrimidin-2-ylamino)piperidin-1-yl}-benzoylamino]propionic acid], the IC50 was at most 1 nM in data set [1], at most 90 nM in data set [2], at most 1 nM on GP IIb/IIIa and at most 70 nM in data set [3].
